Laboratory results as given in patent US20240390471A1, “COMPOUNDS AND ADJUVANT FORMULATIONS USEFUL IN PNEUMOCOCCAL VACCINES” (Merck Sharp & Dohme LLC, priority 2023, published 2024).

Tests used:
human TLR7 = molecular target: T1, human TLR7 (Homo sapiens, UniProt Q9NYK1); experiment: Cell-based TLR 7/8 assay, HEK-Blue TLR7 cells (SEAP reporter); settings: based on Compound concentration only; Compounds formulated as SNEs; read-out: huTLR7 EC50 (converted)
T1 construct: host or cells: HEK-Blue 293 cells expressing human TLR7
T1 sequence (Q9NYK1 27-1049): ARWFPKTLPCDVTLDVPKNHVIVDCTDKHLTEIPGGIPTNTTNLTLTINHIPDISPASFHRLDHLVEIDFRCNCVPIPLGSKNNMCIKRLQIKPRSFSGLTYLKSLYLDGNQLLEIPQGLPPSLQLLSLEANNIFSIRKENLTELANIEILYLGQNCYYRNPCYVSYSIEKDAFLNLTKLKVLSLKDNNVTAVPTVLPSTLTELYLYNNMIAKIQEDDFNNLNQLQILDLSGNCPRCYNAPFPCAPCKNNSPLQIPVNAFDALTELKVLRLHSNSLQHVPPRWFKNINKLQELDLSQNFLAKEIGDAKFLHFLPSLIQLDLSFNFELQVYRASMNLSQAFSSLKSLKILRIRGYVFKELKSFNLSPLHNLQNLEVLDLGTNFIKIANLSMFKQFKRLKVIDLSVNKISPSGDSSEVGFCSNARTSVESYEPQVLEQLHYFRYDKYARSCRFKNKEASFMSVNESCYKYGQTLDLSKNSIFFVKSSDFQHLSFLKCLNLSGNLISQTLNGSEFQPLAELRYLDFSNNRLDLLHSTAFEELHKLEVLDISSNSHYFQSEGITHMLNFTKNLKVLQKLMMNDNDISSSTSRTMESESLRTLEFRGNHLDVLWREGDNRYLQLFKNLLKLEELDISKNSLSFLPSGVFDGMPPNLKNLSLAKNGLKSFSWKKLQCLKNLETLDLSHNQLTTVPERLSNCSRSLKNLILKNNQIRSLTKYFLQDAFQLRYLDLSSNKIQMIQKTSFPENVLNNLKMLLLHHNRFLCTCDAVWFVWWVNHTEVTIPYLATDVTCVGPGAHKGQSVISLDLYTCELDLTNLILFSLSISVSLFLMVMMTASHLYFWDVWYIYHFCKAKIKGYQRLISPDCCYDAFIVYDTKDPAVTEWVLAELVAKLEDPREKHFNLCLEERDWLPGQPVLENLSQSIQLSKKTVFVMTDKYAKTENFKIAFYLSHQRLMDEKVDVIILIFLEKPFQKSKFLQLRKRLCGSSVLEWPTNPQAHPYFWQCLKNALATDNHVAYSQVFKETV
Experimental: (§1) HEK-Blue™ TLR7 and TLR8 cells (InvivoGen) were designed to assess the stimulation of TLR7 and TLR8 by monitoring the activation of NF-κB and AP-1. Compound B-1-SNE samples were diluted 1:2 across an 8-point titration in diluent buffer histidine/PS-20 in a sterile V-bottom plate. 20 μL of samples were transferred to corresponding wells of two flat bottom assay plates. Media was aspirated from HEK-Blue™ human TLR 7 and TLR 8 cells (T-75 flasks) and gently rinsed with pre-warmed (37° C.) DPBS for a total volume of 5 mL/flask. The DPBS was gently removed from the cells and cells were gently manually dislodged and resuspended in 2 mL of DPBS. Cell assay suspensions were then prepared at approximately 2.2×10^5 cells per mL of HEK-Blue™ detection medium (InvivoGen). 180 μL of cell suspension in detection medium was added to each well of the two flat bottom assay plates containing the diluted Compound B-1-SNE samples for a final dilution of sample equaling 1:10 (180 μL of cell suspension in detection medium and 20 μL of sample). The cells were then incubated at 37° C. in 5% CO2 for 20 hrs. The reporter gene, NF-Kb, induces the production of secreted embryonic alkaline phosphatase (SEAP) when stimulated and can be monitored using the vendor supplied SEAP detection kit. SEAP colorimetric changes were read at an absorbance of 640 nm using a SpectroMax Stakmax plate reader. […] EC50 values were calculated based on total Compound B-1-SNE concentration using GraphPad Prism Software and analyzed using agonist vs. response variable slope (four parameters) least squares fit.
(§2) Further to the description in Example 10, a cell-based activation system was used to assess activity of the Compound-formulated nanoemulsion systems, prepared as described in examples, supra. HEK-Blue™ TLR7 and TLR8 cells (InvivoGen) were designed to assess the stimulation of TLR7 and TLR8 by monitoring the activation of NF-κB and AP-1. Compound-SNE samples were diluted 1:2 across an 8-point titration in diluent buffer histidine/PS-20 in a sterile V-bottom plate. 20 μL of samples were transferred to corresponding wells of two flat bottom assay plates. Media was aspirated from HEK-Blue™ human TLR 7 and TLR 8 cells (T-75 flasks) and gently rinsed with pre-warmed (37° C.) DPBS for a total volume of 5 mL/flask. The DPBS was gently removed from the cells and cells were gently manually dislodged and resuspended in 2 mL of DPBS. Cell assay suspensions were then prepared at approximately 2.2×10^5 cells per mL of HEK-Blue™ detection medium (InvivoGen). 180 μL of cell suspension in detection medium was added to each well of the two flat bottom assay plates containing the diluted Compound-SNE samples for a final dilution of sample equaling 1:10 (180 μL of cell suspension in detection medium and 20 μL of sample). The cells were then incubated at 37° C. in 5% CO2 for 20 hrs. The reporter gene, NF-Kb, induces the production of secreted embryonic alkaline phosphatase (SLAP) when stimulated and can be monitored using the vendor supplied SLAP detection kit. SLAP colorimetric changes were read at an absorbance of 640 nm using a SpectroMax Stakmax plate reader. EC50s were calculated based on Compound concentration only, not total Compound-SNE concentration (Table 6) using GraphPad Prism Software and analyzed using agonist vs. response variable slope (four parameters) least squares fit.

human TLR8 = molecular target: T2, human TLR8 (Homo sapiens, UniProt Q9NR97); experiment: Cell-based TLR 7/8 assay, HEK-Blue TLR8 cells (SEAP reporter); settings: based on Compound concentration only; Compounds formulated as SNEs; read-out: huTLR8 EC50 (converted)
T2 construct: host or cells: HEK-Blue 293 cells expressing human TLR8
T2 sequence (Q9NR97 27-1041): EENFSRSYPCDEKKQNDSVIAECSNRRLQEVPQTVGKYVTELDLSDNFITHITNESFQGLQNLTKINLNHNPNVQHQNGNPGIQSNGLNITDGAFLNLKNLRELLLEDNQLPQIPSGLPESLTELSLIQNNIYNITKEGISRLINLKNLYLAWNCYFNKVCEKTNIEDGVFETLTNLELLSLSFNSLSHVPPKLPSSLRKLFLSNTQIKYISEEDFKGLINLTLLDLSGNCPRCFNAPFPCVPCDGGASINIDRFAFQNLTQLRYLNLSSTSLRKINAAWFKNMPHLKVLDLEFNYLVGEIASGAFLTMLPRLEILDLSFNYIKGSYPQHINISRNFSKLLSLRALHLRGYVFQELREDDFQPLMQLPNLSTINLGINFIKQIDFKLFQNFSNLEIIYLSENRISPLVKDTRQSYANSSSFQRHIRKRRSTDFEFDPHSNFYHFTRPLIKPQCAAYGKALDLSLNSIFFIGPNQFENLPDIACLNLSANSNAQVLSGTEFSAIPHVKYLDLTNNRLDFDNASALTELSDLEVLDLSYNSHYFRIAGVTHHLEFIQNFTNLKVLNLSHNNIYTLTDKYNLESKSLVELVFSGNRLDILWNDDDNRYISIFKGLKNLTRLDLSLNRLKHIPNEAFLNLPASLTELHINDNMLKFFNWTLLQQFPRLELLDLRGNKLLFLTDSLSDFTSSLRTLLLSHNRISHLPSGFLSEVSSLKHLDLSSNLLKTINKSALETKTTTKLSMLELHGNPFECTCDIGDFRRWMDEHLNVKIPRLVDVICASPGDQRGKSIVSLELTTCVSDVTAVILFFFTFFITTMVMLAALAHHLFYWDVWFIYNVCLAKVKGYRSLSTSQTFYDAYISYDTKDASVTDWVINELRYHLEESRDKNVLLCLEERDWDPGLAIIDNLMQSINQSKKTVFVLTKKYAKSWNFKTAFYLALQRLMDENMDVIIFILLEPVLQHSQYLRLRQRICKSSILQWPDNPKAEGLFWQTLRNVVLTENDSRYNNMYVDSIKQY
Experimental: as §1, §2

SMILES | EC50 (human TLR7) [µM] | EC50 (human TLR8) [µM]
CCCCCCCCCCCCCCCCCC(=O)NCCCCC(=O)N1CCN(c2cc(OC)c(Cn3cc4nc(N)nc(NCCCC)c4n3)c(OC)c2)CC1 [Compound A-1, N-(5-(4-(4-((5-amino-7-(butylamino)-2H-pyrazolo[4,3-d]pyrimidin-2-yl)methyl)-3,5-dimethoxyphenyl)piperazin-1-yl)-5-oxopentyl)stearamide] | 14.9 | 5.37
CCCCCCCCCCCCCCCCCC(=O)NCCCCC(=O)N1CCN(c2cc(OC)c(Cn3cc4nc(N)nc(N[C@H](CO)CCC)c4n3)c(OC)c2)CC1 [Compound A-2, (S)—N-(5-(4-(4-((5-amino-7-((1-hydroxypentan-2-yl)amino)-2H-pyrazolo[4,3-d]pyrimidin-2-yl)methyl)-3,5-dimethoxyphenyl)piperazin-1-yl)-5-oxopentyl)stearamide] | 7.53 | 0.454
CCCCCCCCCCCCCCCCCC(=O)NCCCCC(=O)N1CCN(c2ccc(Cn3cc4nc(N)nc(NCCCC)c4n3)c(OC)c2)CC1 [Compound B-1, N-(5-(4-(4-((5-amino-7-(butylamino)-2H-pyrazolo[4,3-d]pyrimidin-2-yl)methyl)-3-methoxyphenyl)piperazin-1-yl)-5-oxopentyl)stearamide] | 0.837 | 0.554
CCCCCCCCCCCCCC(=O)NCCCCC(=O)N1CCN(c2ccc(Cn3cc4nc(N)nc(NCCCC)c4n3)c(OC)c2)CC1 [Compound B-2, N-(5-(4-(4-((5-amino-7-(butylamino)-2H-pyrazolo[4,3-d]pyrimidin-2-yl)methyl)-3-methoxyphenyl)piperazin-1-yl)-5-oxopentyl)tetradecanamide] | 0.208 | 0.306
CCCCCCCC/C=C\CCCCCCCC(=O)NCCCCC(=O)N1CCN(c2ccc(Cn3cc4nc(N)nc(NCCCC)c4n3)c(OC)c2)CC1 [Compound B-3, N-(5-(4-(4-((5-amino-7-(butylamino)-2H-pyrazolo[4,3-d]pyrimidin-2-yl)methyl)-3-methoxyphenyl)piperazin-1-yl)-5-oxopentyl)oleamide] | 0.155 | 0.129
CCCCC/C=C\C/C=C\CCCCCCCC(=O)NCCCCC(=O)N1CCN(c2ccc(Cn3cc4nc(N)nc(NCCCC)c4n3)c(OC)c2)CC1 [Compound B-4, (9Z,12Z)—N-(5-(4-(4-((5-amino-7-(butylamino)-2H-pyrazolo[4,3-d]pyrimidin-2-yl)methyl)-3-methoxyphenyl)piperazin-1-yl)-5-oxopentyl)octadeca-9,12-dienamide] | 0.389 | 0.389
CCCCCCCCCCCCCCCCCC(=O)NCCCCC(=O)N1CCCN(c2ccc(Cn3cc4nc(N)nc(NCCCC)c4n3)c(OC)c2)CC1 [Compound B-5, N-(5-(4-(4-((5-amino-7-(butylamino)-2H-pyrazolo[4,3-d]pyrimidin-2-yl)methyl)-3-methoxyphenyl)-1,4-diazepan-1-yl)-5-oxopentyl)stearamide] | 13.4 | 4.21
CCCCCCCCCCCCCCCCCC(=O)NCCCCC(=O)N1CCC(c2ccc(Cn3cc4nc(N)nc(NCCCC)c4n3)c(OC)c2)CC1 [Compound B-6, N-(5-(4-(4-((5-amino-7-(butylamino)-2H-pyrazolo[4,3-d]pyrimidin-2-yl)methyl)-3-methoxyphenyl)piperidin-1-yl)-5-oxopentyl)stearamide] | 4.19 | 2.59
CCCCCCCCCCCCCCCCCC(=O)NCCCCC(=O)N1CC(c2ccc(Cn3cc4nc(N)nc(NCCCC)c4n3)c(OC)c2)C1 [Compound B-7, N-(5-(3-(4-((5-amino-7-(butylamino)-2H-pyrazolo[4,3-d]pyrimidin-2-yl)methyl)-3-methoxyphenyl)azetidin-1-yl)-5-oxopentyl)stearamide] | 8.43 | 3.39
CCCCCCCCCCCCCCCCCC(=O)NCCCNC(=O)C1CCN(c2ccc(Cn3cc4nc(N)nc(NCCCC)c4n3)c(OC)c2)CC1 [Compound B-8, 1-(4-((5-amino-7-(butylamino)-2H-pyrazolo[4,3-d]pyrimidin-2-yl)methyl)-3-methoxyphenyl)-N-(3-stearamidopropyl)piperidine-4-carboxamide] | 64.7 | 54
CCCCCCCCCCCCCCCCNC(=O)[C@H]1C[C@@H](CC(=O)N2CCN(c3ccc(Cn4cc5nc(N)nc(NCCCC)c5n4)c(OC)c3)CC2)C1 [Compound B-10, (1s,3s)-3-(2-(4-(4-((5-amino-7-(butylamino)-2H-pyrazolo[4,3-d]pyrimidin-2-yl)methyl)-3-methoxyphenyl)piperazin-1-yl)-2-oxoethyl)-N-hexadecylcyclobutane-1-carboxamide] | 117 | 73.6
